# Results published in US11965006B2, “Antimicrobial and anti-cancer therapy” (UNIVERSITY OF PITTSBURGH—OF THE COMMONWEALTH SYSTEM OF …, priority 2016, dated 2024).
# Square brackets hold non-standard residues; d marks the D form. Ends that are not written are not given here. Peptide text beside a SMILES is read from it.
# Tests used:
# Format in all cases: cell-based
# [1] = tested on: Klebsiella pneumonia multi-drug resistant (MDR) clinical isolates; assay: Bacterial growth (O.D. readings) of Kp isolates treated with D-amino acid substituted AMPs
# Method: (§1) Tables 3 and 4 provide the MIC data for the tested AMPs against a variety of infectious species. The following strains were tested: Enterococcus faecium MDR clinical isolates Ef 25153 and Ef 26125; methicillin-resistant Staphylococcus aureus (MRSA) clinical isolates USA300 and 150-10; Klebsiella pneumonia MDR clinical isolates C3, C5, A5, D7 and E6; and Pseudomonas aeruginosa MDR clinical isolates PA 82-8 and PA 129-5. […] Table 5 provides the data for the D-amino acid substituted AMPs and their bactericidal activities against various Klebsiella pneumonia multi-drug resistant (MDR) clinical isolates. All odd number Kp bacteria (isolated prior to colistin treatment; colistin sensitive) are paired with the corresponding even number Kp bacteria (isolated after colistin treatment; colistin resistant) from the same patient. O.D. readings represent the bacterial growth with a background reading of about 0.049+/−0.003.
# [2] = tested on: P. aeruginosa lipopolysaccharide (LPS)-induced secretion of tumor necrosis factor (TNF) in Raw (264.7) Cells; assay: Neutralization of LPS-induced TNF secretion; settings: 1 μg/ml LPS
# Method: Anti-inflammatory activity is based on the determination of cytokine stimulation of major inflammatory (e.g. TNF) or anti-inflammatory (e.g., IL-10) cytokines. For in vitro studies, TNF is measured using culture medium from LPS-stimulated macrophage cultures in the presence or absence of peptide treatment. For in vivo studies, cytokine levels in bronchoalveolar lavage (BAL) fluid were quantified using the mouse cytokine multiplex panel assay (Milliplex; Millipore, Billerica, Mass.). The expressions of cytokines were analyzed using the Luminex assay system, based on manufacturer's instructions and our previous publication. Standard recombinant protein solution was used to generate a standard curve for each analyzed protein. Absolute cytokine concentrations were calculated from the standard curve for each cytokine.
# A high dosage (1 μg/ml) of LPS was used to stimulate the TNF secretion in raw cells.
# [3] = tested on: Pseudomonas aeruginosa MDR clinical isolates; settings: MDR clinical isolates, 18 h
# Method: (§2) The bactericidal activities were examined using standard bacterial culture media (MHB) without the inclusion of human blood.
# as §1
# [4] = tested on: methicillin-resistant Staphylococcus aureus (MRSA) clinical isolates; settings: methicillin-resistant clinical isolates, 18 h
# Method: as §2, §1
# [5] = tested on: Enterococcus faecium MDR clinical isolates; settings: MDR clinical isolates, 18 h
# Method: as §2, §1
# [6] = tested on: Klebsiella pneumonia MDR clinical isolates; settings: 18 h
# Method: as §2, §1
# [7] = Kp strain 1 (colistin sensitive), background about 0.049
# [8] = Kp strain 2 (colistin resistant), background about 0.049
# [9] = Kp strain 3 (colistin sensitive)
# [10] = Kp strain 4 (colistin resistant)
# [11] = Kp strain 5 (colistin sensitive)
# [12] = Kp strain 6 (colistin resistant)
# [13] = Kp strain 7 (colistin sensitive)
# [14] = Kp strain 8 (colistin resistant)
# [15] = Kp strain 9 (colistin sensitive)
# [16] = Kp strain 10 (colistin resistant)
# [17] = Kp strain 11 (colistin sensitive)
# [18] = Kp strain 12 (colistin resistant)
# [19] = Kp strain 13 (colistin sensitive)
# [20] = Kp strain 14 (colistin resistant)
# [21] = Kp strain 15 (colistin sensitive)
# [22] = Kp strain 16 (colistin resistant)
# [23] = Kp strain 17 (colistin sensitive)
# [24] = Kp strain 18 (colistin resistant)
# [25] = Kp strain 19 (colistin sensitive)
# [26] = Kp strain 20 (colistin resistant)
# [27] = Kp strain 21 (colistin sensitive)
# [28] = Kp strain 22 (colistin resistant)
# [29] = Kp strain 23 (colistin sensitive)
# [30] = Kp strain 24 (colistin resistant)
compound,measurement,setting,value
CC(C)[C@H](NC(=O)[C@H](Cc1c[nH]c2ccccc12)NC(=O)[C@H](CCCNC(=N)N)NC(=O)[C@@H](N)CCCNC(=N)N)C(=O)N[C@@H](CCCNC(=N)N)C(=O)N[C@@H](CCCNC(=N)N)C(=O)N[C@@H](C(=O)N[C@@H](CCCNC(=N)N)C(=O)N[C@@H](CCCNC(=N)N)C(=O)N[C@H](C(=O)N[C@@H](Cc1c[nH]c2ccccc12)C(=O)N[C@@H](CCCNC(=N)N)C(=O)N[C@@H](CCCNC(=N)N)C(=O)N[C@H](C(=O)N[C@@H](C(=O)N[C@@H](CCCNC(=N)N)C(=O)N[C@@H](C(=O)N[C@H](C(=O)N[C@@H](CCCNC(=N)N)C(=O)N[C@@H](CCCNC(=N)N)C(=O)N[C@@H](Cc1c[nH]c2ccccc12)C(=O)N[C@@H](C(=O)N[C@@H](CCCNC(=N)N)C(=O)N[C@@H](CCCNC(=N)N)C(=O)O)C(C)C)C(C)C)C(C)C)C(C)C)C(C)C)C(C)C)C(C)C [SEQ ID No. 32] (H-RRWVRR[dV]RRVWRRV[dV]R[dV]VRRW[dV]RR-OH; N-terminus and C-terminus assumed),O.D. reading,[1]; [7],0.039
same,O.D. reading,[1]; [8],0.044
same,O.D. reading,[1]; [9],0.043
same,O.D. reading,[1]; [10],0.042
same,O.D. reading,[1]; [11],0.042
same,O.D. reading,[1]; [12],0.107
same,O.D. reading,[1]; [13],0.042
same,O.D. reading,[1]; [14],0.04
same,O.D. reading,[1]; [15],0.042
same,O.D. reading,[1]; [16],0.048
same,O.D. reading,[1]; [17],0.048
same,O.D. reading,[1]; [18],0.05
same,O.D. reading,[1]; [19],0.048
same,O.D. reading,[1]; [20],0.047
same,O.D. reading,[1]; [21],0.048
same,O.D. reading,[1]; [22],0.045
same,O.D. reading,[1]; [23],0.045
same,O.D. reading,[1]; [24],0.047
same,O.D. reading,[1]; [25],0.048
same,O.D. reading,[1]; [26],0.049
same,O.D. reading,[1]; [27],0.051
same,O.D. reading,[1]; [28],0.048
same,O.D. reading,[1]; [29],0.048
same,O.D. reading,[1]; [30],0.11
CC(C)[C@H](NC(=O)[C@H](Cc1c[nH]c2ccccc12)NC(=O)[C@H](CCCNC(=N)N)NC(=O)[C@@H](N)CCCNC(=N)N)C(=O)N[C@@H](CCCNC(=N)N)C(=O)N[C@@H](CCCNC(=N)N)C(=O)N[C@@H](C(=O)N[C@@H](CCCNC(=N)N)C(=O)N[C@@H](CCCNC(=N)N)C(=O)N[C@@H](C(=O)N[C@@H](Cc1c[nH]c2ccccc12)C(=O)N[C@@H](CCCNC(=N)N)C(=O)N[C@@H](CCCNC(=N)N)C(=O)N[C@H](C(=O)N[C@@H](C(=O)N[C@@H](CCCNC(=N)N)C(=O)N[C@@H](C(=O)N[C@@H](C(=O)N[C@@H](CCCNC(=N)N)C(=O)N[C@@H](CCCNC(=N)N)C(=O)N[C@@H](Cc1c[nH]c2ccccc12)C(=O)N[C@@H](C(=O)N[C@@H](CCCNC(=N)N)C(=O)N[C@@H](CCCNC(=N)N)C(=O)O)C(C)C)C(C)C)C(C)C)C(C)C)C(C)C)C(C)C)C(C)C [SEQ ID No. 33] (H-RRWVRR[dV]RR[dV]WRRV[dV]R[dV][dV]RRW[dV]RR-OH; N-terminus and C-terminus assumed),O.D. reading,[1]; [7],0.104
same,O.D. reading,[1]; [8],0.108
same,O.D. reading,[1]; [9],0.048
same,O.D. reading,[1]; [10],0.047
same,O.D. reading,[1]; [11],0.053
same,O.D. reading,[1]; [12],0.12
same,O.D. reading,[1]; [13],0.046
same,O.D. reading,[1]; [14],0.056
same,O.D. reading,[1]; [15],0.043
same,O.D. reading,[1]; [16],0.131
same,O.D. reading,[1]; [17],0.057
same,O.D. reading,[1]; [18],0.066
same,O.D. reading,[1]; [19],0.05
same,O.D. reading,[1]; [20],0.089
same,O.D. reading,[1]; [21],0.048
same,O.D. reading,[1]; [22],0.054
same,O.D. reading,[1]; [23],0.044
same,O.D. reading,[1]; [24],0.048
same,O.D. reading,[1]; [25],0.049
same,O.D. reading,[1]; [26],0.05
same,O.D. reading,[1]; [27],0.048
same,O.D. reading,[1]; [28],0.05
same,O.D. reading,[1]; [29],0.047
same,O.D. reading,[1]; [30],0.076
"GVKKKWKKKLGLKLWLKISGVVLG [SEQ ID No. 24, reference compound]",neutralizing LPS-induced TNF secretion,[2],Display Neutralizing Activities
same,MIC PA 82-8,[3],>32 µM
same,MIC PA 129-5,[3],<16 µM
same,MIC MRSA 150-10,[4],>32 µM
same,MIC MRSA USA300,[4],>32 µM
same,MIC Ef 25153,[5],>32 µM
same,MIC Ef 26125,[5],16 µM
same,MIC A5,[6],32 µM
same,MIC C3,[6],32 µM
"ILKPGGGTSGGLLGGLLGKVTSVIPGLNNI [SEQ ID No. 1, reference compound]",neutralizing LPS-induced TNF secretion,[2],display neutralizing activities
same,MIC PA 82-8,[3],>32 µM
same,MIC PA 129-5,[3],>32 µM
same,MIC MRSA 150-10,[4],>32 µM
same,MIC MRSA USA300,[4],>32 µM
same,MIC Ef 25153,[5],>32 µM
same,MIC Ef 26125,[5],>32 µM
same,MIC A5,[6],>32 µM
same,MIC C3,[6],>32 µM
same,MIC C5,[6],>32 µM
same,MIC D7,[6],>32 µM
same,MIC E6,[6],>32 µM
LKKWWKKVKGLLGGLLGKVKKVIK [SEQ ID No. 17],MIC PA82 82-8,[3],4 µM
same,MIC PA 129-5,[3],<2 µM
same,MIC MRSA 150-10,[4],<2 µM
same,MIC MRSA USA300,[4],<2 µM
same,MIC Ef 25153,[5],<2 µM
same,MIC Ef 26125,[5],<2 µM
same,MIC A5,[6],>4 µM
same,MIC C3,[6],<2 µM
same,MIC C5,[6],4 µM
same,MIC D7,[6],<2 µM
same,MIC E6,[6],<2 µM
LKKWWKKVKGLLGGLLGKVKSVIK [SEQ ID No. 16],MIC PA82 82-8,[3],4 µM
same,MIC PA 129-5,[3],4 µM
same,MIC MRSA 150-10,[4],4 µM
same,MIC MRSA USA300,[4],<2 µM
same,MIC Ef 25153,[5],<2 µM
same,MIC Ef 26125,[5],<2 µM
same,MIC A5,[6],>4 µM
same,MIC C3,[6],<2 µM
same,MIC C5,[6],4 µM
same,MIC D7,[6],<2 µM
same,MIC E6,[6],<2 µM
LKKWWKTSKGLLGGLLGKVTSVIK [SEQ ID No. 13],neutralizing LPS-induced TNF secretion,[2],Display Neutralizing Activities
same,MIC PA82 82-8,[3],16 µM
same,MIC PA 129-5,[3],<16 µM
same,MIC MRSA USA300,[4],<8 µM
same,MIC Ef 25153,[5],<16 µM
same,MIC Ef 26125,[5],<8 µM
same,MIC A5,[6],>16 µM
same,MIC C3,[6],>16 µM
same,MIC C5,[6],16 µM
same,MIC D7,[6],<8 µM
same,MIC E6,[6],<8 µM
"LLGDFFRKSKEKIGKEFKRIVQRIKDFLRNLLPRTES [SEQ ID No. 25, reference compound]",neutralizing LPS-induced TNF secretion,[2],Do Not Neutralize
same,MIC PA 82-8,[3],32 µM
same,MIC PA 129-5,[3],16 µM
same,MIC MRSA 150-10,[4],32 µM
same,MIC MRSA USA300,[4],>32 µM
same,MIC Ef 25153,[5],<16 µM
same,MIC Ef 26125,[5],<16 µM
same,MIC A5,[6],>32 µM
same,MIC C3,[6],32 µM
same,MIC C5,[6],>32 µM
same,MIC D7,[6],<16 µM
same,MIC E6,[6],<16 µM
